# “And” between values parts separate entries of the source, which are not always exact repeats. Identical values can stand only once.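 Briefly, cells in 96-well plates were exposed to five compound concentrations for 48 h, and endpoints were estimated by linear interpolation. GI50 is the concentration that inhibits growth by half.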 The source made the active and inactive calls. Cut-off read from the data, not from the text of the source: active = GI50 up to about 1.1 µM and inactive = higher.
# Key:
# Experiment in all cases: DTP human tumour cell line panel, 48 h
# A498 = tested on: A498
# ACHN = tested on: ACHN
# SK-MEL-28 = tested on: SK-MEL-28
# KM12 = tested on: KM12
# SK-OV-3 = tested on: SK-OV-3
# RXF 631 = tested on: RXF 631
# OVCAR-8 = tested on: OVCAR-8
# M19-MEL = tested on: M19-MEL
# SF-268 = tested on: SF-268
# HT-29 = tested on: HT-29
# LXFL 529 = tested on: LXFL 529
# TK-10 = tested on: TK-10
# SK-MEL-2 = tested on: SK-MEL-2
# K562 = tested on: K562
# HCT-15 = tested on: HCT-15
# HOP-62 = tested on: HOP-62
# SW-620 = tested on: SW-620
# UO-31 = tested on: UO-31
# SN12C = tested on: SN12C
# NCI-H226 = tested on: NCI-H226
# MOLT-4 = tested on: MOLT-4
# NCI-H460 = tested on: NCI-H460
# DLD-1 = tested on: DLD-1
# CCRF-CEM = tested on: CCRF-CEM
# U-251 = tested on: U-251
# Malme-3M = tested on: Malme-3M
# M14 = tested on: M14
# A549 = tested on: A549
# UACC-62 = tested on: UACC-62
# SF-295 = tested on: SF-295
# 786-0 = tested on: 786-0
# SNB-19 = tested on: SNB-19
# KM-20L2 = tested on: KM-20L2
# NCI-H522 = tested on: NCI-H522
# HCC 2998 = tested on: HCC 2998
# CAKI-1 = tested on: CAKI-1
# HOP-18 = tested on: HOP-18
# SR = tested on: SR
# HOP-92 = tested on: HOP-92
# LOX IMVI = tested on: LOX IMVI
# NCI-H23 = tested on: NCI-H23
# HCT-116 = tested on: HCT-116
# UACC-257 = tested on: UACC-257
# SNB-75 = tested on: SNB-75
# EKVX = tested on: EKVX
# SF-539 = tested on: SF-539
# OVCAR-4 = tested on: OVCAR-4
# HL-60 = tested on: HL-60
# XF498 = tested on: XF498
# SNB-78 = tested on: SNB-78
# RPMI-8226 = tested on: RPMI-8226
# IGROV-1 = tested on: IGROV-1
# OVCAR-5 = tested on: OVCAR-5
# DMS-273 = tested on: DMS-273
# SK-MEL-5 = tested on: SK-MEL-5
# DMS-114 = tested on: DMS-114
# COLO 205 = tested on: COLO 205
# RXF 393 = tested on: RXF 393
structure (smiles),measurement,setting,value
CN/N=C(\C)c1c(O)cc(C)oc1=O,GI50,A498,> 100 µM (inactive)
same,GI50,ACHN,> 100 µM (inactive)
same,GI50,SK-MEL-28,> 100 µM (inactive)
same,GI50,KM12,> 100 µM (inactive)
same,GI50,SK-OV-3,> 100 µM (inactive)
same,GI50,RXF 631,> 100 µM (inactive)
same,GI50,OVCAR-8,> 100 µM (inactive)
same,GI50,M19-MEL,> 100 µM (inactive)
same,GI50,SF-268,> 100 µM (inactive)
same,GI50,HT-29,> 100 µM (inactive)
same,GI50,LXFL 529,> 100 µM (inactive)
same,GI50,TK-10,> 100 µM (inactive)
same,GI50,SK-MEL-2,> 100 µM (inactive)
same,GI50,K562,> 100 µM (inactive)
same,GI50,HCT-15,> 100 µM
same,GI50,HOP-62,> 100 µM (inactive)
same,GI50,SW-620,> 100 µM (inactive)
same,GI50,UO-31,> 100 µM (inactive)
same,GI50,SN12C,> 100 µM (inactive)
same,GI50,NCI-H226,> 100 µM (inactive)
same,GI50,MOLT-4,> 100 µM (inactive)
same,GI50,NCI-H460,> 100 µM (inactive)
same,GI50,DLD-1,> 100 µM (inactive)
same,GI50,CCRF-CEM,> 100 µM (inactive)
same,GI50,U-251,> 100 µM (inactive)
same,GI50,Malme-3M,> 100 µM (inactive)
same,GI50,M14,> 100 µM (inactive)
same,GI50,A549,> 100 µM (inactive)
same,GI50,UACC-62,> 100 µM (inactive)
same,GI50,SF-295,> 100 µM (inactive)
same,GI50,786-0,> 100 µM (inactive)
same,GI50,SNB-19,> 100 µM (inactive)
same,GI50,KM-20L2,> 100 µM (inactive)
same,GI50,NCI-H522,> 100 µM (inactive)
same,GI50,HCC 2998,> 100 µM (inactive)
same,GI50,CAKI-1,> 100 µM (inactive)
same,GI50,HOP-18,> 100 µM (inactive)
same,GI50,SR,> 100 µM (inactive)
same,GI50,HOP-92,> 100 µM (inactive)
same,GI50,LOX IMVI,> 100 µM (inactive)
same,GI50,NCI-H23,> 100 µM (inactive)
same,GI50,HCT-116,> 100 µM (inactive)
same,GI50,UACC-257,> 100 µM (inactive)
same,GI50,SNB-75,> 100 µM (inactive)
same,GI50,EKVX,> 100 µM (inactive)
same,GI50,SF-539,> 100 µM (inactive)
same,GI50,OVCAR-4,> 100 µM (inactive)
same,GI50,HL-60,> 100 µM (inactive)
Cc1cc(Cl)cc2c1NC(=O)C2(O)C(C(=O)c1ccccc1)c1ccccc1 (centres undefined),GI50,XF498,36.4 µM (inactive) and 28.7 µM (inactive)
same,GI50,A498,27.7 µM (inactive)
same,GI50,KM12,47.6 µM (inactive) and 60.4 µM (inactive)
same,GI50,SK-OV-3,56.6 µM (inactive)
same,GI50,RXF 631,37.8 µM (inactive) and 70.1 µM (inactive)
same,GI50,M19-MEL,3.4 µM (inactive)
same,GI50,HT-29,35.2 µM (inactive) and 39.8 µM (inactive)
same,GI50,TK-10,> 100 µM (inactive) and 84.7 µM (inactive)
same,GI50,SK-MEL-2,44.8 µM (inactive) and 32.3 µM (inactive)
same,GI50,K562,33.5 µM (inactive)
same,GI50,HCT-15,71.3 µM and 46.7 µM
same,GI50,HOP-62,82 µM (inactive) and 47.3 µM (inactive)
same,GI50,SW-620,44.7 µM (inactive) and 76 µM (inactive)
same,GI50,SNB-78,41.8 µM (inactive) and 56.6 µM (inactive)
same,GI50,RPMI-8226,17.4 µM (inactive) and 22.9 µM (inactive)
same,GI50,NCI-H226,36.4 µM (inactive) and 27.3 µM (inactive)
same,GI50,MOLT-4,16 µM (inactive)
same,GI50,IGROV-1,26.2 µM (inactive)
same,GI50,DLD-1,53.8 µM (inactive) and 42.3 µM (inactive)
same,GI50,CCRF-CEM,26.7 µM (inactive)
same,GI50,UACC-62,17.3 µM (inactive)
same,GI50,SF-295,45.7 µM (inactive) and 67.8 µM (inactive)
same,GI50,SNB-19,77.6 µM (inactive)
same,GI50,OVCAR-5,> 100 µM (inactive)
same,GI50,DMS-273,55.8 µM (inactive)
same,GI50,KM-20L2,88.9 µM (inactive)
same,GI50,NCI-H522,36.5 µM (inactive)
same,GI50,HCC 2998,23.9 µM (inactive) and 29.9 µM (inactive)
same,GI50,SK-MEL-5,21.2 µM (inactive)
same,GI50,LOX IMVI,19.3 µM (inactive) and 33 µM (inactive)
same,GI50,NCI-H23,52.5 µM (inactive) and 38.6 µM (inactive)
same,GI50,HCT-116,23.4 µM (inactive)
same,GI50,SNB-75,24.7 µM (inactive) and 21.7 µM (inactive)
same,GI50,DMS-114,22.9 µM (inactive) and 25.6 µM (inactive)
same,GI50,EKVX,49.8 µM (inactive) and 67.8 µM (inactive)
same,GI50,SF-539,21 µM (inactive)
same,GI50,OVCAR-4,20.4 µM (inactive) and 35.5 µM (inactive)
same,GI50,HL-60,20.1 µM (inactive)
Nc1nnc(N)n1N,GI50,XF498,28.8 µM (inactive)
same,GI50,COLO 205,> 100 µM (inactive)
same,GI50,ACHN,> 100 µM (inactive)
same,GI50,SK-MEL-28,> 100 µM (inactive)
same,GI50,KM12,> 100 µM (inactive)
same,GI50,SK-OV-3,> 100 µM (inactive)
same,GI50,RXF 631,> 100 µM (inactive)
same,GI50,M19-MEL,> 100 µM (inactive)
same,GI50,SF-268,> 100 µM (inactive)
same,GI50,RXF 393,> 100 µM (inactive)
same,GI50,HT-29,> 100 µM (inactive)
same,GI50,LXFL 529,> 100 µM (inactive)
same,GI50,TK-10,> 100 µM (inactive)
same,GI50,SK-MEL-2,> 100 µM (inactive)
same,GI50,K562,> 100 µM (inactive)
same,GI50,HCT-15,> 100 µM
same,GI50,HOP-62,> 100 µM (inactive)
same,GI50,SW-620,> 100 µM (inactive)
same,GI50,SNB-78,> 100 µM (inactive)
same,GI50,RPMI-8226,> 100 µM (inactive)
same,GI50,UO-31,> 100 µM (inactive)
same,GI50,NCI-H226,> 100 µM (inactive)
same,GI50,MOLT-4,> 100 µM (inactive)
same,GI50,IGROV-1,> 100 µM (inactive)
same,GI50,NCI-H460,> 100 µM (inactive)
same,GI50,DLD-1,> 100 µM (inactive)
same,GI50,CCRF-CEM,> 100 µM (inactive)
same,GI50,U-251,> 100 µM (inactive)
same,GI50,Malme-3M,> 100 µM (inactive)
same,GI50,M14,> 100 µM (inactive)
same,GI50,A549,> 100 µM (inactive)
same,GI50,UACC-62,> 100 µM (inactive)
same,GI50,SF-295,> 100 µM (inactive)
same,GI50,786-0,> 100 µM (inactive)
same,GI50,SNB-19,> 100 µM (inactive)
same,GI50,OVCAR-5,> 100 µM (inactive)
same,GI50,DMS-273,> 100 µM (inactive)
same,GI50,NCI-H522,> 100 µM (inactive)
same,GI50,HCC 2998,> 100 µM (inactive)
same,GI50,CAKI-1,> 100 µM (inactive)
same,GI50,SR,> 100 µM (inactive)
same,GI50,HOP-92,> 100 µM (inactive)
same,GI50,SK-MEL-5,> 100 µM (inactive)
same,GI50,LOX IMVI,> 100 µM (inactive)
same,GI50,NCI-H23,> 100 µM (inactive)
same,GI50,HCT-116,> 100 µM (inactive)
same,GI50,UACC-257,> 100 µM (inactive)
same,GI50,SNB-75,> 100 µM (inactive)
same,GI50,DMS-114,> 100 µM (inactive)
same,GI50,EKVX,> 100 µM (inactive)
same,GI50,SF-539,> 100 µM (inactive)
same,GI50,OVCAR-4,> 100 µM (inactive)
same,GI50,HL-60,> 100 µM (inactive)

# From ChEMBL document CHEMBL1201862, “PubChem BioAssay data set” (2004)
